Several values for one entry are separate records, joined by “and”; a condition that tells them apart may be missing. Identical values can stand only once.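 How tested: cells in 96-well plates exposed to compound for 48 hours at five concentrations. The concentration for 50% growth inhibition is given as GI50.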 Activity calls are given as the source filed them. Rule as the data show it: active = GI50 up to about 1.1 µM and inactive = higher.
What was measured:
Experiment in all cases: NCI anticancer screen, dose series, 48 h
[1] = system: NCI/ADR-RES
[2] = system: SN12C
[3] = system: SF-539
[4] = system: HCT-116
[5] = system: SK-MEL-5
[6] = system: Malme-3M
[7] = system: DU-145
[8] = system: COLO 205
[9] = system: Hs-578T
[10] = system: SNB-75
[11] = system: MCF7
[12] = system: PC-3
[13] = system: M14
[14] = system: SK-MEL-2
[15] = system: HOP-92
[16] = system: A549
[17] = system: TK-10
[18] = system: SF-295
[19] = system: SF-268
[20] = system: KM12

Measured: GI50

Oc1ccc2ccccc2c1/N=N/c1ccccc1
inactive: [1] > 100 µM | [2] > 100 µM | [3] > 100 µM | [4] > 100 µM | [5] > 100 µM | [6] > 100 µM | [7] > 100 µM | [8] > 100 µM | [9] > 57.3 µM and 35.4 µM | [10] > 100 µM | [11] > 100 µM | [12] > 87.9 µM | [13] > 100 µM | [14] > 100 µM | [15] 73.5 µM | [16] 57.5 µM | [17] 73.3 µM

COCCCNc1nc(N)c(C#N)c(C#N)c1C#N
inactive: [1] > 10 µM | [2] > 10 µM | [3] > 10 µM | [4] > 10 µM | [5] > 10 µM | [6] > 10 µM | [7] > 10 µM | [8] > 10 µM | [18] > 10 µM | [9] > 10 µM | [10] > 10 µM | [11] > 10 µM | [19] > 10 µM | [12] > 10 µM | [13] > 10 µM | [14] > 10 µM | [20] > 10 µM | [16] > 10 µM | [17] > 10 µM

CON(C)c1nc(N(C)OC)nc(N(C)OC)n1
inactive: [1] > 10 µM | [2] > 10 µM | [3] > 10 µM | [4] > 10 µM | [5] > 10 µM | [6] > 10 µM | [7] > 10 µM | [8] > 10 µM | [18] > 10 µM | [9] > 10 µM | [10] > 10 µM | [11] > 10 µM | [19] > 10 µM | [12] > 10 µM | [13] > 10 µM | [14] > 10 µM | [20] > 10 µM | [16] > 10 µM | [17] > 10 µM

CC1=C2C(O)C(C(C)C(=O)NC(C)C)CCC2(C)C=CC1=O (stereo not given)
inactive: [1] > 100 µM | [2] > 100 µM | [3] > 100 µM | [4] > 100 µM | [5] > 100 µM | [8] > 100 µM | [18] > 100 µM | [10] > 100 µM | [11] > 100 µM | [19] > 100 µM | [14] > 100 µM | [20] > 100 µM | [15] > 100 µM | [16] > 100 µM

O=C(NC1C=Nc2ccc([N+](=O)[O-])cc2NC1=O)c1cc(Cl)cc([N+](=O)[O-])c1 (stereo not given)
inactive: [2] > 100 µM | [3] > 100 µM | [4] > 100 µM | [5] > 100 µM | [8] 59.3 µM | [18] > 100 µM | [10] > 100 µM | [19] > 100 µM | [13] > 100 µM | [14] > 100 µM | [20] 54.3 µM | [15] > 100 µM | [16] > 100 µM | [17] > 100 µM

COc1nc(C#CCC(C)O)nc(OC)n1 (stereo not given)
inactive: [1] 21 µM | [2] 19.5 µM | [3] 26 µM | [4] 14.9 µM | [5] 18.8 µM | [6] 11.5 µM | [7] 22.9 µM | [8] 25.4 µM | [18] 30.6 µM | [9] 25.7 µM | [10] 27 µM | [11] 13.1 µM | [19] 21.3 µM | [12] 22.6 µM | [13] 16.9 µM | [14] 33.7 µM | [20] 24.5 µM | [16] 23.3 µM | [17] 24.2 µM

Cc1cn(C2CC(N)C(C(=O)NCC(=O)O)O2)c(=O)[nH]c1=O (stereo not given)
inactive: [1] > 100 µM | [2] > 100 µM | [4] > 100 µM | [5] > 100 µM | [6] > 100 µM | [7] > 100 µM | [8] > 100 µM | [9] > 100 µM | [10] > 100 µM | [11] > 100 µM | [19] > 100 µM | [12] > 100 µM | [13] > 100 µM | [20] > 100 µM | [15] > 100 µM | [17] > 100 µM

COC1OC2COC(c3ccccc3)OC2C(OC(=S)c2ccccc2)C1O (stereo not given)
inactive: [1] 15.5 µM | [2] 46.3 µM | [3] 13.2 µM | [5] > 100 µM | [6] 4.45 µM | [7] > 100 µM | [8] > 100 µM | [18] 28.8 µM | [9] 27.2 µM | [11] > 100 µM | [19] 27 µM | [12] 4.61 µM | [13] > 100 µM | [14] 51.1 µM | [15] > 100 µM | [16] 13.4 µM | [17] 28.2 µM

N#CN=C(NCCO)NCCO
inactive: [2] > 100 µM | [3] > 100 µM | [4] > 100 µM | [6] > 100 µM | [8] > 100 µM | [18] > 100 µM | [10] > 100 µM | [19] > 100 µM | [13] > 100 µM | [14] > 100 µM | [20] > 100 µM | [16] > 100 µM

C=CCc1c(O)c2c(c3oc(=O)cc(C)c13)CC(C)O2 (stereo not given)
inactive: [2] > 100 µM | [3] > 100 µM | [4] > 100 µM | [5] > 100 µM | [6] > 100 µM | [18] > 100 µM | [10] > 100 µM | [19] > 100 µM | [13] > 100 µM | [14] > 100 µM | [16] > 100 µM | [17] > 100 µM

N#Cc1c(OCCF)c2ccccc2n2c1nc1ccccc12
inactive: [1] 45.3 µM | [3] 16.9 µM | [4] 11.2 µM | [5] 49.5 µM | [7] 79.8 µM | [8] > 100 µM | [18] 23.9 µM | [9] 17.3 µM | [10] 70.6 µM | [11] 16.6 µM | [19] 27 µM | [12] 59.2 µM | [13] > 100 µM | [14] > 100 µM | [20] > 100 µM | [16] 31.6 µM | [17] 31.1 µM

Cc1ccc(N2C(=O)C3CSCN3C2=O)cc1 (stereo not given)
inactive: [1] > 100 µM | [2] > 100 µM | [3] > 100 µM | [4] 2.46 µM | [5] > 100 µM | [8] > 100 µM | [18] > 100 µM | [10] > 100 µM | [11] > 100 µM | [19] > 100 µM | [14] > 100 µM | [20] > 100 µM | [15] > 100 µM | [16] > 100 µM
